Test results from patent US8394785B2, “Methods for the treatment and amelioration of urticaria” (Jado Technologies GmbH, priority 2005, dated 2013).

Experiments:
[1] = system: primary human mast cells (human skin); assay: Histamine release assay, anti-IgE induced, primary human mast cells; format: cell-based; conditions: Mast cell, maximal effect at 25 μM, not dependent on pre-incubation time, read-out: maximal inhibitory effect on IgE-induced histamine release
Method: (§1) Tissue mast cells were isolated from human skin obtained during cosmetic surgery. Use of human skin was conducted according to the Declaration of Helsinki Principles and was approved by the Institutional Review Board of the Charité—Universitätsmedizin Berlin. For isolation of mast cells, the epidermis was enzymatically detached by an overnight incubation at 4° C. with dispase at a concentration of 1 mg/ml. The remaining dermis was dispersed by incubation with a mix of collagenase I and hyaluronidase for 1 h at 37° C. Dispersion was repeated three times, and the collected cells were washed. […] The final mast cell purity was >90% as measured by Toluidin blue staining. The viability of mast cells was >95% as assessed by Trypan blue staining (Grützkau et al 2000, Artuc et al 2002). The quantification of histamine levels was achieved using an automated histamine-analyser system (Firm Borgwelt Technik). The wavelength of the excitation was 355-360 nm and the emission wavelength of fluorescence measurement was 450-460 nm. The intensity of fluorescence was directly proportional to the concentration of histamine in the samples. The amount of released histamine was calculated according to the following formula: net histamine release=(release−blank)×(100/complete). […]

[2] = system: primary human mast cells (human skin); assay: Histamine release assay, Substance P induced, primary human mast cells; format: cell-based; conditions: dose-dependent; not dependent on pre-incubation time
Method: as §1

[3] = system: allergic volunteers with known type-1-sensitizations; assay: Prick test with patient-specific allergen after topical pre-treatment, wheal size; format: in vivo, human; conditions: n = 5; for allergen-prick wheal ± standard error: miltefosine pre-treatment (6% solution, topical, 2 h before); for allergen-prick % inhibition ± standard error (by miltefosine pre-treatment): versus placebo pre-treatment
Excerpt: To provide proof of concept that miltefosine inhibits IgE-dependent human mast cell stimulation and mediator release in vivo we performed a study on selected allergic volunteers with known type-1-sensitizations (n=5). The volunteers were subjected to standard prick testing with their known allergens on both forearms as well as with positive (histamine) and negative (saline) controls (Table 3). Using a double blind, placebo controlled approach, one forearm of each test person was pre-treated with topical miltefosine (6% solution). The contralateral side was subjected to a pre-treatment with a placebo solution (saline), both two hours prior to the prick test. Subsequently, developing skin symptoms were measured with high-quality standardized methods, i.e. macroscopic standard prick test-evaluation (Heinzerling et al 2005), volumetric imaging, thermography, and digital time lapse photography (DTLP). Volunteers known to suffer from permanent severe diseases, especially those affecting the immune system, were excluded from the study. None of the volunteers took any oral […] or leukotriene antagonists within 7 days prior to the beginning of the study. Moreover, none of them took any oral or depot corticosteroids or other immunosuppressive drugs within 21 days before the testing. The course of developing lesions (wheal and erythema size) was assessed macroscopically by measuring vertical and perpendicular diameter of wheal and erythema size. Subsequently, the sum of both diameters was divided by two. In addition, volumetric and thermographic imaging as well as DTLP was performed before and at defined time points after prick testing. To assess the course of developing prick test lesions, wheal size was assessed macroscopically by measuring the diameters at distinct time points after prick testing.

CCCCCCCCCCCCCCCCOP(=O)([O-])OCC[N+](C)(C)C [Compound 3, 1-hexadecylphosphoryl-choline]
inhibition at 25 µM [1]: 35%
inhibition of Substance P induced histamine release [2]: 45%
allergen-prick wheal ± standard error ([3]; 15 minutes after prick testing): 4.20 ± 1.36 mm
allergen-prick wheal ± standard error ([3]; 20 minutes after prick testing): 4.40 ± 1.34 mm
allergen-prick wheal ± standard error ([3]; 30 minutes after prick testing): 2.90 ± 1.36 mm
allergen-prick % inhibition ± standard error (by miltefosine pre-treatment) ([3]; 15 minutes after prick testing): 35.0 ± 16.6%
allergen-prick % inhibition ± standard error (by miltefosine pre-treatment) ([3]; 20 minutes after prick testing): 34.8 ± 18.0%
allergen-prick % inhibition ± standard error (by miltefosine pre-treatment) ([3]; 30 minutes after prick testing): 51.8 ± 22.8%
